Data from patent publication EP2545917B1, “NOVEL EP4 AGONIST” (Kaken Pharmaceutical Co., Ltd., priority 2010, dated 2011).

Assays:
[1] = Plasma pharmacokinetics after intravenous administration to rats; type: in vivo; details: male, rat
Protocol: To verify the in vivo metabolic stability of the compound of the present invention, plasma pharmacokinetics was evaluated after intravenous administration to rats. Male rats (6 weeks old, body weight 160 - 180 g) were acclimated for 1 week, and the animals diagnosed healthy were used. A mixture of compound F and compound J of the present invention described in Table 1 (F:J = 52:41), and a mixture of carboxylate forms of compound F and compound J (F:J = 54:34), and compound F (synthesized in Example 9) were dissolved in a small amount of ethanol and physiological saline was added to prepare test compound solutions. The test compound solutions were instantaneously administered intravenously at 1 mL/kg from the femoral vein of non-fasting rats under light ether anesthesia. Venous blood was drawn from the tail vein 5, 15, 30, 45, 60, 90 and 120 min after administration. The blood was mixed with heparin and centrifuged (3000 rpm, 4°C, 15 min) to obtain plasma. The plasma compound concentration was determined by the internal standard method using LC-MS/MS. The determination range by this method was from 0.1 to 100 ng/mL. The compound concentrations obtained from each rat were analyzed in a model-independent way using a pharmacokinetics analysis software WinNonlin (ver.3.3), and average ± standard deviation of 3 animals for each group was obtained.

[2] = tested on: dextran sodium sulfate-induced colitis; assay: Therapeutic effect on remission/relapse model of dextran sodium sulfate-induced colitis in mice; type: in vivo, BALB/c mice
Source text: Next, therapeutic effect of compound F on colitis was studied in a chronic model. Female BALB/c mice, 6 weeks old, body weight about 20 g (Japan SLC) were purchased, acclimated for 1 week and used for the study. The mice were divided into a colitis induction group and a normal group. The colitis induction group was allowed to freely drink a 2.6 w/v% DSS (MP Biochemicals, M.W. 36,000- 50,000, Lot No. 4556J) solution to induce colitis. On day 8 when the stool score (defined in Example 23) of the colitis induction group reached about 4.5, the mice were subdivided into a control group, a compound F 1 mg/kg administration group and a salazosulfapyridine (SIGMA, Lot No. 085K1930, hereinafter to be abbreviated as SASP) 100 mg/kg administration group. Then the mice were allowed to freely drink distilled water instead of DSS solution for 9 days (remission period). After the grouping, the stool score was evaluated every 3 - 4 days. When the score of the control group reached about 1, the mice were again allowed to drink the DSS solution to cause a relapse (relapse period). The periods of remission and relapse were taken as 1 cycle and the cycle was repeated 5 times. As for the 5th cycle, however, only the remission period was performed.
Compound F at a dose of 1 mg/kg and SASP at a dose of 100 mg/kg were orally administered once a day, daily, for 50 days from the initial remission period (day 8 from the start of 2.6 w/v% DSS drinking) to the fifth remission period (day 57 from the start of 2.6 w/v% DSS drinking). To the control group was orally administered a solvent (1 vol% ethanol solution) at 10 mL/kg. If a mouse had score 0 of both stool consistency score and occult blood score on the last day of each remission period, the mouse was regarded as "in remission". The remission ratio (%) was calculated as a ratio of mice in remission in each group. Eight to 10 mice were used for each group and the results are shown in average value.

[3] = mice, oral once a day, Compound F 1 mg/kg, SASP 100 mg/kg

## Cc1cccc([C@@H](C)[C@H](O)/C=C/[C@@H]2[C@@H]3[C@H](C[C@H]2O)O/C(=C\CCCc2nnn[nH]2)C3(F)F)c1 [Compound F, 4-[(Z)-(1S,5R,6R,7R)-6-[(1E,3R,4R)-3-hydroxy-4-(m-tolyl)-1-pentenyl]-7-hydroxy-2-oxa-4,4-difluoro-bicyclo[3.3.0]octan-3-ylidene]-1-(tetrazol-5-yl)butane]
[1]; iv, 50 ug/kg
  half-life: 1.92 ± 0.517 h
[1]; iv, 300 ug/kg
  half-life: 2.63 ± 0.25 h
[1]; rats, intravenous, summary of Table 3
  half-life: 1 to 2 h
[2]; average of 5 remission periods, Compound F 1 mg/kg, SASP 100 mg/kg
  Remission Ratio Average: 66.0%
[2]; mice, oral 1 mg/kg once a day
  remission ratio in any remission period: not less than 60%
[2]; mice, oral once a day for 50 days, compound F 1 mg/kg, SASP 100 mg/kg
  effect on stool score in remission and relapse periods: decreased the stool score early in the remission period, and suppressed an increase in the score in the relapse period
[2]; [3]
  Remission Ratio Cycle 1: 60.0%
  Remission Ratio Cycle 2: 80.0%
  Remission Ratio Cycle 3: 70.0%
  Remission Ratio Cycle 4: 60.0%
  Remission Ratio Cycle 5: 60.0%
